SMILES strings stand for the structures. Converted amounts (≈) assume the structure as drawn. Like-named read-outs stand apart in the source and are kept apart here. Bounds are passed on as bounds.

This note sets out measurements from US20150025131A1 (priority 2013, published 2015).

Data set [1] concerns knee joints of arthritic rats. As to the kind of experiment: Adjuvant induced arthritis model, histopathology of knee joints (H & E). Type of data set: in vivo, Sprague Dawley rats. The following applies: H & E staining. The method, then: All studies were carried out using Female Sprague Dawley (SD) rats weighing 150-250 gms. Animals were kept at 21±2° C. and on a 12-h light/dark cycle, received standardized pelleted diet and tap water. Experiments were performed under the ethical guidelines of the International Association for the study of pain in conscious animals. Each group contains 12 animals with randomly distributed weights into each treatment group.
Arthritis was induced by injecting freshly prepared 100 μL of 1 mg suspension of lyophilized Mycobacterium tuberculosis H37Ra (MT H37Ra; DIFCO Laboratories, Detroit, Mich., USA), subcutaneously at the rat tail base using sterile hypodermic needle. Inoculation was carried out under anesthesia with a combination of 20 mg/kg ketamine and 5 mg/kg xylazine, injected intraperitoneally. Compound and the reference drug were administered daily, intraperitoneally using sterile syringes. The positive control received vehicle (5% DMSO+PBS) or saline only; treatment groups received test compounds (25 mg/kg), whereas reference group received indomethacin (5 mg/kg). The doses of the test compounds were selected after preliminary dose finding studies. The treatment was started on the same day after vaccination.
The animals were sacrificed at the end of the experiment and samples were taken from the knee joints. Sample fixation were done using 10% formalin following decalcification. The samples were then processed, embedded, cut, mounted and stained with hematoxylin and eosin (H & E) dye for microscopic evaluation.

The subject of another data set is IL-1β production. As to the kind of experiment: IL-1β production from PMA differentiated, LPS activated THP-1 cells (ELISA). Type of data set: cell-based. The following applies: Homo sapiens, 18 h, read-out: inhibition of IL-1β production (IC50). The method, then: THP-1 (human monocytic leukemia) cells were maintained in RPMI-1640 supplemented with 10% FBS, 2 mmol/L glutamine, 5.5 mmol/L glucose, 50 μmol/L mercaptoethanol, 1 mmol/L sodium pyruvate, and 10 mmol/L HEPES and incubated at 37° C. in 5% CO2. Cells were grown in […] culture flask until they attained 70% confluency. Cells were then plated in 24-well tissue culture plates at a concentration of 2.5×10^5 cells/mL. Cells were differentiated into macrophages using PMA at a final concentration of 20 ng/mL and further incubated at 37° C. in 5% CO2 environment for 24 h. […] After addition of the compound cells were then incubated for 4 h for TNF-α production and 18 h for IL-1β production at 37° C. in 5% CO2. The supernatants were harvested and analyzed for the level of TNF-α and IL-1β, by human TNF-α and IL-1β Duo set ELISA kits, and according to the manufacturer's instructions.
For orientation: ELISA stands for enzyme-linked immunosorbent assay.

For data set [2], the system named is ROS production from human peripheral whole blood phagocytes. As to the kind of experiment: Luminol enhanced chemiluminescence oxidative burst, whole blood. Type of data set: cell-based. The method, then: Intracellular effect was determined using human peripheral whole blood phagocytes and isolated neutrophils and from mice peritoneum macrophages, where luminol-enhanced chemillumenescence assay was applied. The effect on myeloperoxidase independent ROS production was determined using lucigenin on murine macrophages RAW.267 cells.
Table 2. […] 267 cells (murine macrophages). DPI is used as standard drug. Reading presents mean±SD of three determinations.
Luminol enhanced chemiluminescence technique was applied to study the effect of compound on ROS from phagocytes, Using whole blood, neutrophil and macrophages Briefly, 25 μL diluted whole blood (1:50 dilution in sterile HBSS^++) or 25 μL of PMNs (1×10^6), or 25 μL of isolated macrophages (1×10^6) were incubated with 25 μL of compound in triplicates and using three different concentrations (1, 10 and 100 μg/mL) using white 96 wells plates. Wells received HBSS^++ and cells only without compound served as positive control. 25 μL of serum opsonized zymosan-A (SOZ), followed by 25 μL luminol (7×10^−5 M), was added to each well to maintain a volume of 100 μL/well. Plates were then incubated at 37° C. for 30 minutes in the thermostated chamber of the luminometer. Results were monitored as relative light unit (RLU) reading, with peak and total integral values set with repeated scans at 60 seconds intervals, and 1 second points measuring time.

Data set [3] deals with NIH 3T3 mouse fibroblast cells. Description: MTT cytotoxicity assay, NIH 3T3. The data set is classed as cell-based. The method, then: (§1) Cell cytotoxicity assay was performed using three different cell lines NIH 3T3 (mouse embryo, fibroblast cells), CC1 (rat, epithelial, liver cell) and MDBK (bovine kidney) cells using MTT (3-[4,5-dimethylthiazole-2-yl]-2,5-diphenyl-tetrazolium bromide) colorimetric assay. Briefly 3T3 were grown in DMEM, supplemented with 10% of fetal bovine serum (FBS), and 1% penicillin-streptomycin whereas CC1 (rat epithelial liver cells) were cultured in EMEM, 2 mM Glutamine, 1% Non-Essential Amino Acids (NEAA), 20 mM HEPES, 10% Foetal Bovine Serum (FBS) and 1% penicillin-streptomycin, and MDBK cells were grown in 10% of fetal bovine serum (FBS) in 75 cm^2 flask, and incubated in 5% CO2 incubator at 37° C. until they attain 70% confluency. Cells were then harvested by centrifuging at 200 g for 5 min at 25° C., counted using heamocytometer and their concentration was adjusted to 6×10^4 cells/mL. 100 μL of Cells were then plated in 96 well plate and incubated overnight. Next day the supernatant was carefully removed and 200 μL of fresh medium was added with three different concentration of compound (1, 10, 50) μg/mL. […] The extent of MTT reduction to formazan within cells was calculated by measuring the absorbance at 540 nm; using a micro plate reader (Spectra Max plus 340, Molecular Devices, Calif., USA). […] The percent inhibition was calculated by using the following formula: […]
On the technique in general: Tetrazolium dyes change colour on reduction, which living cells bring about.

Data set [4] is described as follows: MTT cytotoxicity assay, NIH 3T3. The data set is classed as cell-based, mouse. The following applies: mouse, NIH 3T3 mouse embryo fibroblast cells, 48 h incubation, read-out: Cytotoxicity (IC50 μg/mL) NIH 3T3 cells. The method, then: as §1

Turning to `COc1c(O)cc2oc(-c3ccc(O)c(O)c3)c(O)c(=O)c2c1O` [Patuletin, 3,5,7,3′,4′-pentahydroxy-6-methoxy flavones], the “histopathology of knee joints (in words) versus arthritic control rats” value in data set [1] was “less infiltration of lymphocytes and minimal bone destruction”. The “histopathology score of knee joints” value in data set [1] (normal control score 0, arthritic control score 4) is recorded as 2. Further, the IC50 is greater than 50 µg/mL in the data set with IL-1β production; 3.5 ± 0.5 µg/mL in data set [2] (luminol enhanced, serum opsonized zymosan, read-out: Myeloperoxidase dependent Oxidative Burst (IC50 μg/mL) Whole blood); 3.5 µg/mL in data set [2] (read-out: suppression of ROS production from whole blood (IC50), unit inferred). Moreover, the “cytotoxicity on NIH 3T3 mouse fibroblast cells (in words)” value in data set [3] is “no cytotoxicity”. Moreover, in data set [4], the IC50 at 48 h was found to be 36.4 ± 6.9 µg/mL (≈ 110 µM).
